Reference: US9650348B2, “Triazines with suitable spacers for treatment and/or prevention of HIV infections” (Universiteit Antwerpen, priority 2012, dated 2017)
Like-named read-outs stand apart in the source and are kept apart here.

Legend:
VI829 L100I+E138K+T369I = assay: Antiviral activity, NNRTI-resistant virus L100I+E138K+T369I; type: cell-based, HIV-1; conditions: VI829, ** = L1001 + E138K + T3691
Experimental: (§1) The target compounds are evaluated for their anti-HIV-1 activity and cytotoxicity. In a primary screen, the anti-HIV activity against the laboratory strain Ba-L and against a primary subtype C isolate was determined in the TZM-bl cell line. Cellular toxicity on TZM-bl cells was evaluated using WST-1. Based on the primary screening results, the target compound was further evaluated for anti-HIV activity in different primary cells, including peripheral blood mononuclear cells, dendritic cells and CD4+ T lymphocytes. In addition, the activity against NNRTI-resistant viruses (V106A, Y181C, L100I+K103N, L100I+E138K+T369I and K101E+K103N+V108VI+V179M+Y181C+E138Q) was tested. Diarylpyrimidines (DAPY) TMC120, TMC125 and TMC278 were used as reference compounds.

VI829 Y181C = assay: Antiviral activity, NNRTI-resistant virus Y181C; type: cell-based, HIV-1; conditions: for EC50: Human immunodeficiency virus 1, read-out: Antiviral activity-NNRTI-resistant viruses EC50 VI829 Y181C; for FC (Y181C): VI829 Y181C
Experimental: as §1, with “Based on the primary screening results, the target compound was further evaluated for anti-HIV activity in different primary cells, including peripheral blood mononuclear cells, dendritic cells and CD4+ T lymphocytes.” left out

in vitro = type: cell-based; conditions: human, Cytotoxicity CC50 TZM-bI
From the text: The Water Soluble Tetrazolium-1 (WST-1) Cell Proliferation Assay is a colorimetric assay for the measurement of cell proliferation and viability. The assay is based on the cleavage of the tetrazolium salt WST-1 (4-[3-(4-iodophenyl)-2-(4-nitrophenyl)-2H-5-tetrazolio]-1,3-benzene disulfonate) to a formazan dye by a complex cellular mechanism. This bioreduction is largely dependent on the glycolytic production of NAD(P)H in viable cells. Therefore, the amount of formazan dye formed correlates directly to the number of viable cells in the culture, and can be quantified by measuring the absorbance at 450 nm in a multiwell plate reader. The greater the number of viable cells, the greater the amount of formazan dye produced following the addition of WST-1. Cytotoxicity of each compound was evaluated using this WST-1 viability assay, according to the manufacturer's instructions (Roche, Vilvoorde, Belgium).
Briefly, ten thousand TZM-bl cells were seeded in a 96-well plate and cultured for 2 days in the presence of a serial dilution of compound. After this 48 h exposure, Cell Proliferation Reagent, WST-1, was added and absorbance at 450 nm was quantified after 90 min using a microplate reader (BioRad, Tokio, Japan). Each compound was tested in three replicate wells and in at least two independent experiments.
as §1, with “Based on the primary screening results, the target compound was further evaluated for anti-HIV activity in different primary cells, including peripheral blood mononuclear cells, dendritic cells and CD4+ T lymphocytes.” left out

[1] = test system: Ba-L K101E + K103N + V108VI + V179M + Y181C + E138Q; assay: Antiviral activity, NNRTI-resistant virus K101E+K103N+V108VI+V179M+Y181C+E138Q; type: cell-based, HIV-1; conditions: for FC (*): Ba-L, * = K101E + K103N + V108VI + V179M + Y181C + E138Q; for EC50: Human immunodeficiency virus 1, BAL, read-out: Antiviral activity-NNRTI-resistant viruses EC50 Ba-L *
Experimental: as §1

VI829 L100I+K103N = assay: Antiviral activity, NNRTI-resistant virus L100I+K103N; type: cell-based, HIV-1; conditions: for EC50: Human immunodeficiency virus 1, read-out: Antiviral activity-NNRTI-resistant viruses EC50 VI829 L100I+K103N; for FC (L100I+K103N): VI829 L100I+K103N
Experimental: as §1, with “Based on the primary screening results, the target compound was further evaluated for anti-HIV activity in different primary cells, including peripheral blood mononuclear cells, dendritic cells and CD4+ T lymphocytes.” left out

HIV-1 BaL = assay: TZM-bl antiviral assay, wild type HIV-1 Ba-L; type: cell-based; conditions: Human immunodeficiency virus 1, BAL, read-out: Antiviral activity-wild type viruses EC50 TZM-bI Ba-L
Experimental: (§2) The JC53-BL cell line, also known as the TZM-bl cell line (NIH AIDS Research and Reference Reagent Program, Germantown, USA), was used for the evaluation of anti-HIV activity. TZM-bl cells were cultured in Dulbecco's […] (DMEM) (Lonza) containing 10% heat-inactivated FBS and 50 μg gentamycin/mL at 37° C. in a humidified 5% CO2, 95% air environment. Twice a week the cells were treated with 0.25% trypsin-1 mM EDTA (Lonza) for 10 minutes. The resulting cell suspension was washed with an equivalent amount of TZM-bl medium and subsequently seeded in a T75 culture flask (Greiner Bio-One, Germany) at 10^6 cells in 20 mL medium.
(§3) The antiviral activity of the newly designed compounds was measured by pre-incubating ten thousand TZM-bl cells (at 10^5 cells/mL in culture medium supplemented with 30 μg/mL DEAE dextran) in a 96-well plate for 30 minutes at 37° C., 5% CO2 in the presence or absence of serial dilutions of the respective compound. Subsequently, 200 TCID50 of HIV-1 BaL was added to each well and cultures were incubated for 48 hours before quantifying luciferase activity, using a TriStar LB941 luminometer (Berthold Technologies GmbH & Co. KG, Bad Wildbad, Germany). Each condition was evaluated in triplicate wells and in at least two independent experiments. The antiviral activity of the compound was expressed as the percentage of viral inhibition compared to the untreated controls and subsequently plotted against the compound concentration.
as §1, with “Based on the primary screening results, the target compound was further evaluated for anti-HIV activity in different primary cells, including peripheral blood mononuclear cells, dendritic cells and CD4+ T lymphocytes.” left out

HIV-1 Ba-L [2] = assay: Antiviral activity in dendritic cells / CD4+ T lymphocytes (DC/T4), Ba-L; type: cell-based; conditions: Human immunodeficiency virus 1, BAL; DC/T4, Ba-L wild type; read-out: Antiviral activity-wild type viruses EC50 DC/T4 Ba-L
HIV-1 Ba-L [3] = assay: Antiviral activity in peripheral blood mononuclear cells (PBMC), Ba-L; type: cell-based; conditions: Human immunodeficiency virus 1, BAL, Ba-L wild type, read-out: Antiviral activity-wild type viruses EC50 PBMC Ba-L
Ba-L V106A = assay: Antiviral activity, NNRTI-resistant virus V106A; type: cell-based, HIV-1; conditions: for FC (V106A): Ba-L V106A; for EC50: Human immunodeficiency virus 1, BAL, read-out: Antiviral activity-NNRTI-resistant viruses EC50 Ba-L V106A
Experimental: as §1, with “Based on the primary screening results, the target compound was further evaluated for anti-HIV activity in different primary cells, including peripheral blood mononuclear cells, dendritic cells and CD4+ T lymphocytes.” left out

VI829 = assay: TZM-bl antiviral assay, wild type VI829 (primary subtype C isolate); type: cell-based, HIV-1; conditions: read-out: Antiviral activity-wild type viruses EC50 TZM-bI VI829
Experimental: as §2, §3
as §1, with “Based on the primary screening results, the target compound was further evaluated for anti-HIV activity in different primary cells, including peripheral blood mononuclear cells, dendritic cells and CD4+ T lymphocytes.” left out

[4] = Human immunodeficiency virus 1, TZM-bl cells, VI829 wild type

Row | Compound | FC (**) (VI829 L100I+E138K+T369I) | EC50 (VI829 Y181C) | FC (Y181C) (VI829 Y181C) | CC50 at 48 h (in vitro) | FC (*) [1] | EC50 [1] | EC50 (VI829 L100I+K103N) | FC (L100I+K103N) (VI829 L100I+K103N) | EC50 (HIV-1 BaL; TZM-bl cells, Ba-L wild type) | EC50 (HIV-1 Ba-L [2]) | EC50 (HIV-1 Ba-L [3]) | FC (V106A) (Ba-L V106A) | EC50 (Ba-L V106A) | EC50 (VI829; [4]) | EC50 (HIV-1 BaL; TZM-bl) | EC50 (VI829; Human immunodeficiency virus 1, TZM-bl)
1 | Cc1cc(C=CC#N)cc(C)c1Nc1nc(Nc2ccc(C#N)cc2)nc(NC(C)C)n1 [T6, 4-((4-((4-(2-cyanovinyl)-2,6-dimethylphenyl)amino)-6-(isopropylamino)-1,3,5-triazin-2-yl)amino)benzonitrile] | 225 | 45 nM | 10 | 24700 nM | 85 | 424 nM | 184 nM | 43 | 5 nM | 1.4 nM | 14 nM | 6 | 30 nM | 4.3 nM |  | 
2 | Cc1cc(C=CC#N)cc(C)c1Oc1nc(Nc2ccc(C#N)cc2)nc(N(C)C)n1 [T13, 4-((4-(4-(2-cyanovinyl)-2,6-dimethylphenoxy)-6-(dimethylamino)-1,3,5-triazin-2-yl)amino)benzonitrile] |  |  |  | 7850 nM | 231 | 786 nM |  |  | 3.4 nM |  |  |  |  |  |  | 
3 | Cc1cc(C#N)cc(C)c1Oc1nc(Nc2ccc(C#N)cc2)nc(N)c1Br [TMC125, Etravirine, reference compound] | 62 | 7.6 nM | 5 |  | 51 | 76 nM | 14 nM | 9 |  | 1.8 nM | 5.9 nM | 1 | 1.6 nM |  | 1.5 nM | 1.5 nM
4 | Cc1cc(C=CC#N)cc(C)c1Nc1nc(Nc2ccc(C#N)cc2)nc(N2CCCCC2)n1 [T7, 4-((4-((4-(2-cyanovinyl)-2,6-dimethylphenyl)amino)-6-(piperidin-1-yl)-1,3,5-triazin-2-yl)amino)benzonitrile] | >50 | 221 nM | 12 | > 100000 nM | >55 | > 1000 nM | > 1000 nM | >50 | 18 nM |  |  | 7 | 126 nM | 19 nM |  | 
5 | CNc1nc(Nc2ccc(C#N)cc2)nc(Oc2c(C)cc(C=CC#N)cc2C)n1 [T12, 4-((4-(4-(2-cyanovinyl)-2,6-dimethylphenoxy)-6-(methylamino)-1,3,5-triazin-2-yl)amino)benzonitrile] | 44 | 7.4 nM | 5 | 20000 nM | 48 | 77 nM | 24 nM | 15 | 1.6 nM |  |  | 4 | 6.5 nM | 1.6 nM |  | 
6 | Cc1cc(C=CC#N)cc(C)c1Oc1nc(N)nc(Nc2ccc(C#N)cc2)n1 [T11, 4-((4-amino-6-(4-(2-cyanovinyl)-2,6-dimethylphenoxy)-1,3,5-triazin-2-yl)amino)benzonitrile] | 167 | 4.1 nM | 6 | 19100 nM | 56 | 62 nM | 17 nM | 27 | 1.1 nM |  |  | 2 | 2.5 nM | 0.64 nM |  | 
